Tests used:
[1] = target: T1, human GABAA α5β3γ2s receptor (Homo sapiens, UniProt P18507+P31644); test: Assay A: in vitro inhibition of 3H-flumazenil binding, HEK cells expressing human GABAA α5β3γ2s receptor; details: 3H-flumazenil 1 nM, HEK-293 membranes, 40 min at 2° C.; Ki from IC50 by Cheng and Prusoff
T1 sequence (P18507 1-475): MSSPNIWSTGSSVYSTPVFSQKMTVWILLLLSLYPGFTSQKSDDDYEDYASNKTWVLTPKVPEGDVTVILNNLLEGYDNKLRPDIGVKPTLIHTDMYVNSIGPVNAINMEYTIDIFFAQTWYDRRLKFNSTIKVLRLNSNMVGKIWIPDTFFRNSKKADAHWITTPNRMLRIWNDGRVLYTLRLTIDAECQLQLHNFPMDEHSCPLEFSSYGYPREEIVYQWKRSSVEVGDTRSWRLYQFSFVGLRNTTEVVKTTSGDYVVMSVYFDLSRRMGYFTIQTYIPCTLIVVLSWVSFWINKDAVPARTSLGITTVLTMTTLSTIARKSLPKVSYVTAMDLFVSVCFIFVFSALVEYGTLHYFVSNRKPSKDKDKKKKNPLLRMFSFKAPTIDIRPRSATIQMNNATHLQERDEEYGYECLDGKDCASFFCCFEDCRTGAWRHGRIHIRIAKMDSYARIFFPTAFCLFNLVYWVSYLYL
T1 sequence (P31644 1-462): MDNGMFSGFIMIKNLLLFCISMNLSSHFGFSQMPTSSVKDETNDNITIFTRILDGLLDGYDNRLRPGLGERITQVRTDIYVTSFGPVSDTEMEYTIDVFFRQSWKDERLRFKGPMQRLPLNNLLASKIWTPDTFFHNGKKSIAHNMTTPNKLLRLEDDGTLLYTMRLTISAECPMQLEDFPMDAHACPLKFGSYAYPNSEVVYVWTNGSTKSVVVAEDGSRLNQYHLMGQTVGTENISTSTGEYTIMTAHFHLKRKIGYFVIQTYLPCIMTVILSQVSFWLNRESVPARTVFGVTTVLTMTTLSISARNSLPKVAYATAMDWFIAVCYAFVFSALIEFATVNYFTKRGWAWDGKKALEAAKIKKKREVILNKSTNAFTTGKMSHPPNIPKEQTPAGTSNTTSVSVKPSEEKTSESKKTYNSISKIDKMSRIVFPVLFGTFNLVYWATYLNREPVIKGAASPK
Procedure: HEK-293 cell lines with stable expression of recombinant human GABAA α5β3γ2s receptors (plasmid H46/E9/B10) are seeded in T175 polystyrene flasks or roller bottles (1700 cm^2, Fisher Scientific CCI-431191), and cultured (37 C, 5% CO˜) in Dulbecco's Modified Eagle Medium (DMEM) with GlutaMAX™ supplemented with 10% fetal bovine serum and one or both of the following antibiotics: hygromycin B ([…]; γ2 subunit) or G418 (0.5 mg/ml; […]).
When the cultures reach confluency, the DMEM is removed and the cells are washed (10 ml for T175 flasks; 50 ml for roller bottles) once in Dulbecco's Phosphate Buffered Saline (DPBS). Following addition of DPBS to the cultures (10 ml for T175 flasks; 100 ml for roller bottles) for approximately 5 min cells are easily detached from the surface by shaking or tapping the flask gently. The cell suspension is transferred to Falcon tubes and centrifuged at 23,500×g for 10 min at 2° C. The pellet is washed once in 15 ml Tris-citrate buffer (50 mM, pH 7.1) using an Ultra-Turrax homogenizer and centrifuged at 2° C. for 10 min at 27,000×g. The washed pellet is re-suspended in 15 ml Tris-citrate buffer and frozen at −80° C. until the day of the binding experiment.
On the day of the experiment the cell membrane preparation is thawed and centrifuged at 2° C. for 10 min at 27,000×g. The pellet is re-suspended, using an Ultra-Turrax homogenizer in Tris-citrate buffer, to 15-50 µg protein per assay and then used for binding assays.
Non-specific binding is determined using clonazepam (1 μM, final concentration).
All dilutions of test compounds and incubation of assay are performed in glass vials/96-vial plates. […] Compounds are dissolved in 100% DMSO (10 mM stock), diluted in 48% ethanol-water, and tested in triplicate in serial 1:3 or 1:10 dilutions. When screening large numbers of compounds only one concentration of each compound is tested in single wells. Reference compounds are not included routinely, but for each experiment performed total and nonspecific binding is compared to data obtained during validation of the assay.
Binding is either terminated by rapid filtration onto
1) Whatman GF/C glass fibre filters using a Brandel Cell harvester, followed by 5 washes with 1 ml ice-cold buffer or onto 2) UniFilter GF/C glass fibre filter plates using a Tomtec cell harvester, followed by washing with approximately 5 ml ice-cold buffer.
The amount of radioactivity on the filters is determined by conventional liquid scintillation counting using a
1) Tri-Garb™ counter (PerkinElmer Life and Analytical Sciences) for separate large filters or
2) Topcount™ counter (PerkinElmer Life and Analytical Sciences) for 96-well filter plates. Specific binding is total binding minus non-specific binding.
For screening purposes n is set to 1. The IC50 value is calculated from the concentration response curves by the non-linear regression method using the curve-fitting program GraphPad Prism. […]

[2] = Metabolic stability in human liver microsomes (Human MST); type: in vitro ADME; details: pooled human liver microsomes, pH 7.6; human liver microsomes 1 mg/mL, 1 μM compound, NADPH 1 mM, 37° C.; read-out: Human MST t1/2
Procedure: Assessment of Metabolic Stability in Human Liver Microsomes (Human MST) The metabolic stability of the compounds according to the invention may be investigated as follows: The metabolic degradation of the test compound is assayed at 37° C. with pooled human liver microsomes. The final incubation volume of 100 μL per time point contains TRIS buffer pH 7.6 at room temperature (0.1 M), MgCl2 (5 mM), microsomal protein (1 mg/mL) and the test compound at a final concentration of 1 μM. Following a short pre-incubation period at 37° C., the reactions are initiated by addition of beta-nicotinamide adenine dinucleotide phosphate, reduced form (NADPH, 1 mM), and terminated by transferring an aliquot into solvent after different time points. After centrifugation (10000 g, 5 min), an aliquot of the supernatant is assayed by LCMS/MS for the amount of parent compound. The half-life (t½) is determined by the slope of the semi-logarithmic plot of the concentration-time profile.

Row | Structure (SMILES) | Ki [1] | half-life at 1 μM [2]
1 | Cc1nnn(-c2ccc(C(F)F)cc2)c1COc1ccc(-c2ccnc(O)c2)nn1 [Example 2, 4-[6-({1-[4-(difluoromethyl)phenyl]-4-methyl-1H-1,2,3-triazol-5-yl}methoxy)pyridazin-3-yl]pyridin-2-ol] | 0.086 nM | > 2.17 h
2 | COc1ncc(-c2ccc(OCc3c(C)nnn3-c3ccc(C(F)F)cc3)nn2)cn1 [Example 3] | 0.16 nM | –
3 | Cc1nnn(-c2ccc(C(F)F)cc2)c1COc1ccc(-c2cnc(OCC(C)(C)O)nc2)nn1 [Example 4] | 0.87 nM | > 2.17 h
4 | Cc1nnn(-c2ccc(C(F)F)cc2)c1COc1ccc(-c2cnn(C)c2)nn1 [Example 5] | 0.11 nM | > 2.17 h
5 | Cc1ncc(-c2ccc(OCc3c(C)nnn3-c3ccc(C(F)F)cc3)nn2)o1 [Example 6] | 0.11 nM | > 2.17 h
6 | CCn1cc(-c2ccc(OCc3c(C)nnn3-c3ccc(C(F)F)cc3)nn2)cn1 [Example 7] | 0.032 nM | –
7 | Cc1nnn(-c2ccc(C(F)F)cc2)c1COc1ccc(-c2cncc(-n3ccnc3)c2)nn1 [Example 8] | 0.055 nM | 1.22 h
8 | Cc1nnn(-c2ccc(C(F)F)cc2)c1COc1ccc(-c2cnn(C3CC3)c2)nn1 [Example 9] | 0.25 nM | > 2.17 h
9 | Cc1cc(-c2ccc(OCc3c(C)nnn3-c3ccc(C(F)F)cc3)nn2)cnn1 [Example 11] | 0.058 nM | > 2.17 h
10 | Cc1n[nH]c(C)c1-c1ccc(OCc2c(C)nnn2-c2ccc(C(F)F)cc2)nn1 [Example 12, 3-({1-[4-(difluoromethyl)phenyl]-4-methyl-1H-1,2,3-triazol-5-yl}methoxy)-6-(3,5-dimethyl-1H-pyrazol-4-yl)pyridazine] | 0.9 nM | 0.417 h
11 | CNC(=O)c1cn(-c2ccc(OCc3c(C)nnn3-c3ccc(C(F)F)cc3)nn2)cn1 [Example 14] | 0.071 nM | > 2.17 h
12 | Cc1nnn(-c2ccc(C(F)F)cc2)c1COc1ccc(-n2cnc(C(F)F)c2)nn1 [Example 15] | 0.11 nM | > 2.17 h
13 | Cc1nnn(-c2ccc(C(F)F)cc2)c1COc1ccc(-n2cnc(C=O)c2)nn1 [Example 17] | 0.089 nM | 0.167 h
14 | Cc1nnn(-c2ccc(C(F)F)cc2)c1COc1ccc(-n2cnc(Cl)c2)nn1 [Example 18] | 0.056 nM | > 2.17 h
15 | Cc1nnn(-c2ccc(C(F)F)cc2)c1COc1ccc(-n2cnc(S(C)(=O)=O)c2)nn1 [Example 19] | 0.38 nM | > 2.17 h
16 | Cc1nnn(-c2ccc(C(F)F)cc2)c1COc1ccc(-n2ccc(C#N)n2)nn1 [Example 20] | 0.009 nM | –
17 | Cc1nnn(-c2ccc(C(F)F)cc2)c1COc1ccc(-n2ccc(C(N)=O)n2)nn1 [Example 21] | 0.047 nM | 0.617 h
18 | Cc1nnn(-c2ccc(C(F)F)cc2)c1COc1ccc(-c2cncnc2)nn1 [Example 22] | 0.11 nM | > 2.17 h
19 | Cc1nnn(-c2ccc(C(F)F)cc2)c1COc1ccc(-n2ccc(C(F)(F)F)n2)nn1 [Example 24] | 0.25 nM | 0.517 h
20 | Cc1nnn(-c2ccc(C(F)F)cc2)c1COc1ccc(-n2cc(C(F)(F)F)cn2)nn1 [Example 25] | 0.35 nM | > 2.17 h
21 | Cc1nnn(-c2ccc(C(F)F)cc2)c1COc1ccc(-n2cc3c(n2)CCNC3=O)nn1 [Example 26] | 0.12 nM | > 2.17 h
22 | Cc1nnn(-c2ccc(C(F)F)cc2)c1COc1ccc(-n2cnc(C(N)=O)c2)nn1 [Example 27, 1-[6-({1-[4-(difluoromethyl)phenyl]-4-methyl-1H-1,2,3-triazol-5-yl}methoxy)pyridazin-3-yl]-1H-imidazole-4-carboxamide] | 0.036 nM | > 2.17 h
23 | COC(=O)c1cn(-c2ccc(OCc3c(C)nnn3-c3ccc(C(F)F)cc3)nn2)cn1 [Example 29] | 0.063 nM | 0.433 h
24 | Cc1nnn(-c2ccc(C(F)F)cc2)c1COc1ccc(-n2cc(C#N)cn2)nn1 [Example 31] | 0.21 nM | > 2.17 h
25 | CC(=O)c1cn(-c2ccc(OCc3c(C)nnn3-c3ccc(C(F)F)cc3)nn2)cn1 [Example 32] | 0.039 nM | > 2.17 h
26 | Cc1ncn(-c2ccc(OCc3c(C)nnn3-c3ccc(C(F)F)cc3)nn2)n1 [Example 33] | 0.163 nM | > 2.17 h
27 | Cc1nnn(-c2ccc(C(F)F)cc2)c1COc1ccc(-n2cnc(CN)c2)nn1 [Example 35, {1-[6-({1-[4-(difluoromethyl)phenyl]-4-methyl-1H-1,2,3-triazol-5-yl}methoxy)pyridazin-3-yl]-1H-imidazol-4-yl}methanamine] | 0.057 nM | > 2.17 h
28 | Cc1nnn(-c2ccc(C(F)F)cc2)c1COc1ccc(-n2cnc(C[N+](C)(C)C)c2)nn1.O=C([O-])C(F)(F)F [Example 36, ({1-[6-({1-[4-(difluoromethyl)phenyl]-4-methyl-1H-1,2,3-triazol-5-yl}methoxy)pyridazin-3-yl]-1H-imidazol-4-yl}methyl)trimethylazanium trifluoroacetate] | 0.12 nM | > 2.17 h
29 | Cc1nnn(-c2ccc(C(F)F)cc2)c1COc1ccc(-n2cnc(C(=O)O)c2)nn1 [Example 37, 1-[6-({1-[4-(difluoromethyl)phenyl]-4-methyl-1H-1,2,3-triazol-5-yl}methoxy)pyridazin-3-yl]-1H-imidazole-4-carboxylic acid] | 0.81 nM | > 2.17 h
30 | Cc1nnn(-c2ccc(C(F)F)cc2)c1COc1ccc(-n2cnc(CO)c2)nn1 [Example 38, {1-[6-({1-[4-(difluoromethyl)phenyl]-4-methyl-1H-1,2,3-triazol-5-yl}methoxy)pyridazin-3-yl]-1H-imidazol-4-yl}methanol] | 0.2 nM | > 2.17 h

Source: patent US10941137B2, “Difluoromethyl-phenyl triazoles” (Boehringer Ingelheim International GmbH, priority 2018, dated 2021)
